In the Bradley open melting point set (2014) one finds melting point data, which are given here for 93 compounds.

The structures appear in SMILES notation. Several values for one entry are separate records, joined by “and”; a condition that tells them apart may be missing. Equal entries are not always repeated.

For the compound `O=C1OCCOC(=O)C2CCCCC2C(=O)OCCOC(=O)C2CCCCC12` (stereo not drawn), the melting point came to 140 °C. Then `O=C1O[C@H]([C@@H](O)CO)C(O)=C1O` [Vitamin C], with 191 °C; and `OB(O)c1ccc(C(F)(F)F)cc1Cl` [2-chloro-4-(trifluoromethyl)benzeneboronic acid], with 111 °C. As to `N#CSCSC#N` [Methylene bis(thiocyanate)], the melting point amounted to 106 °C.

Compound `CC(C)(C)NC(=O)[C@@H]1CC2CCCCC2CN1C[C@@H](O)[C@H](Cc1ccccc1)NC(=O)[C@H](CC(N)=O)NC(=O)c1ccc2ccccc2n1` (stereo partly drawn) [Saquinavir] came in with a melting point of 350 °C.

`CC(=O)c1ccccc1` [1-Phenylethanone] displayed a melting point of 19 °C. `NC(=O)c1cc(F)cc(F)c1` [3,5-difluorobenzamide] showed a melting point of 156 °C. With `O=C(O)c1cc(Cl)cc([N+](=O)[O-])c1Cl` [2,5-dichloro-3-nitrobenzoic acid], the melting point is 220 °C.

Turning to `N=C(N)N` [Guanidine], the melting point was found to be 50 °C.

`O/N=C/C1=C(/C=C/c2ccccc2)CCC1` registered a melting point of 163 °C. The value for `C=CCNC(N)=S` [1-Allylthiourea] was 71 °C; that for `N=C(N)NCCC[C@H](N)C(=O)O` [L-Arginine] was 221 °C. The value for `NS(=O)(=O)c1cc(C(=O)O)c(NCc2ccco2)cc1Cl` [Furosemide] was 206 °C. As to `OB(O)c1cccc2ccccc12` [1-naphthaleneboronic acid], the melting point was found to be 207 °C. Then `Cc1ccc(C)c(O)c1` [2,5-dimethylphenol], with 74.8 °C and 76 °C; and `CCCC(=O)OC` [Methyl butyrate], with -95 °C; and `O=C(Oc1ccccc1)c1ccccc1O` [phenyl salicylate], with 43 °C. Consider `CCN(CC)CCNc1ccc(CO)c2sc3ccccc3c(=O)c12` [hycanthone], for which the melting point stood at 101 °C. The value for `Cc1ccc(Cl)c(N)c1` [2-chloro-5-methylaniline] was 32 °C; that for `O=CO` [formic acid] was 8.3 °C and 8.32 °C; that for `O=C(O)CCc1cccc(Br)c1` [3-(3-bromophenyl)propionic acid] was 64 °C. Take `NC(Cc1ccccc1)C(=O)O` (stereo not drawn) [phenylalanine]: the melting point was found to be 186 °C.

Compound `CN(C)CCOc1ccc(/C(=C(\CCCl)c2ccccc2)c2ccccc2)cc1` had a melting point of 108 °C.

Turning to `Clc1nc(Cl)nc(Cl)n1` [2,4,6-Trichloro-1,3,5-triazine], the melting point worked out at 146 °C. As for `Brc1cccc2ccccc12` [1-bromonaphthalene], the melting point is -1 °C. On to `O=S(=O)(O)O` [Sulfuric acid], for which the melting point was -2 °C. The compound `O=C(O)/C(=C/c1ccc([N+](=O)[O-])cc1)c1ccc(F)cc1` [(E)-2-(4-Fluorophenyl)-3-(4-nitrophenyl)propenoic acid] had a melting point of 242 °C. The value for `O=C(O)C1=NN(c2ccccc2)C(=O)C1=CC1C(=O)N(c2ccccc2)N=C1C(=O)O` (stereo not drawn) was 259 °C. `NC(N)=Nc1nc(CSCCC(N)=N[S+2](N)([O-])[O-])cs1` had a melting point of 163 °C.

`O=C1CC(=O)c2ccccc21` [1,3-indanedione]: the melting point amounted to 130 °C.

`C1CCCCCCC1` [cyclooctane]: the melting point was 15 °C. The compound `N#Cc1cccc(CO)c1` [m-hydroxymethyl_benzonitrile] displayed a melting point of 28 °C.

On to `CCCCCCCC` [N-Octane], for which the melting point was -56.8 °C. Then `CC(C)(C(=O)O)c1ccccc1` [alpha,alpha-dimethylphenylacetic acid], with 81 °C; and `C#CCOc1c(Cl)cccc1Cl` [3-(2,6-dichlorophenoxy)-1-propyne], with 44 °C; and `O=C(O)CCCc1ccccc1` [4-phenylbutyric acid], with 51 °C. `ClCBr` [Bromo(chloro)methane] displayed a melting point of -88 °C. `O=Cc1ccccc1B(O)O` [2-formylbenzeneboronic acid] returned a melting point of 118 °C. `CC(=O)Oc1ccccc1C(=O)O` [aspirin] displayed a melting point of 138 °C.

`Clc1cccc(Cl)c1N=C1NCCN1` [clonidine] registered a melting point of 130 °C. In turn, `CCCCC(=O)N(Cc1ccc(-c2ccccc2-c2nnn[nH]2)cc1)C(C(=O)O)C(C)C` (stereo not drawn) [valsartan] came in with a melting point of 116 °C. Then `NC(=O)c1ccc(C=O)cc1` [p-formyl_benzamide], with 75 °C; and `N#Cc1c(F)c(F)c(F)c(C#N)c1F` [2,4,5,6-Tetrafluoroisophthalonitrile], with 79 °C. Compound `O=C(c1ccccc1)c1ccc(C(F)(F)F)cc1` [FXFFR DVR] yielded a melting point of 116 °C. In turn, `OCCSSCCO` [2-Hydroxyethyl Disulfide] gave a melting point of 26 °C. Compound `C1=C\CCCC\C=C/1` [(1Z,3Z)-Cycloocta-1,3-diene] showed a melting point of -53 °C. The compound `CCCCCCCCCCCC(=O)OOC(=O)CCCCCCCCCCC` [Diundecylperoxyanhydride] registered a melting point of 56 °C. Regarding `CC(=O)CC(C)C` [4-methyl-2-pentanone], the melting point was -84 °C. The value for `COC(=O)c1cc(O)c(O)c(O)c1` [methyl 3,4,5-trihydroxybenzoate] was 201 °C. Compound `Cc1cc(-c2ccccc2)[nH]n1` [3-methyl-5-phenyl-1h-pyrazole] gave a melting point of 126 °C.

Compound `Cc1cc(Cl)nc(Cl)c1C#N` [2,6-dichloro-4-methylnicotinonitrile] gave a melting point of 113 °C. The compound `Cc1ccc(S(=O)(=O)NC2CCCCC2)cc1` [N-cyclohexyl-p-toluenesulfonamide] displayed a melting point of 88 °C. Compound `CCCCCCCC` [N-octane] displayed a melting point of -57 °C. `C[C@]12CC[C@H](O)[C@@H](O)[C@H]1CC[C@@H]1[C@@H]2CC[C@]2(C)C(=O)CC[C@@H]12` [(3beta,4alpha,5beta)-3,4-Dihydroxyandrostan-17-one] had a melting point of 221 °C. Consider `Nc1ccc([N+](=O)[O-])cc1` [4-Nitroaniline], for which the melting point came out at 148 °C. The value for `CC(=O)NNC(N)=S` [1-acetyl-3-thiosemicarbazide] was 167 °C; that for `N#Cc1ccncc1I` [4-cyano-3-iodopyridine] was 121 °C; that for `Nc1ccc2[nH]c(C(F)(F)F)nc2c1` [5-amino-2-(trifluoromethyl)benzimidazole] was 188 °C. The compound `CCOC(=O)C1=C(C)N=NC1C` (stereo not drawn) [ethyl 3,5-dimethyl-1H-pyrazole-4-carboxylate] displayed a melting point of 119 °C. Take `O=Cc1ccc(O)cc1O` [b-Resorcylaldehyde]: the melting point came out at 136 °C. With `NCCS(=O)(=O)O` [2-Aminoethanesulfonic acid], the melting point turned out to be 300 °C. In turn, `Cc1ccccc1C1(C#N)Cc2ccccc2C(=O)O1` (stereo not drawn) had a melting point of 122 °C. `CN(C)c1ccc(C=O)cc1` [4-dimethylaminobenzaldehyde] returned a melting point of 74 °C. Compound `CC(Oc1c(Cl)cccc1Cl)C1=NCCN1` (stereo not drawn) [lofexidine] came in with a melting point of 126 °C.

Turning to `CCCCCC(O)CC` (stereo not drawn) [3-octanol], the melting point was -45 °C. `CC(C)=NO` [acetone oxime] came in with a melting point of 62 °C.

On to `O[C@@H]1[C@H](O)[C@@H](O)OC[C@H]1O` [D-lyxose], for which the melting point amounted to 112 °C. The compound `CCOC(=O)c1ccc(-n2c(C)cc(C=O)c2C)cc1` [OSM-S-46] came in with a melting point of 113 °C.

For `OCc1cc2ccccc2s1` [benzo[b]thiophene-2-methanol], the melting point is 100 °C. Then `COc1ccccc1N/N=C1\C(=O)N(CN2CCCCC2)N=C1C`, with 149 °C; and `OCc1ccccc1` [benzyl alcohol], with -15 °C; and `CC(=N/O)/C(C)=N\O` [(2Z,3Z)-N,N'-Dihydroxybutane-2,3-diimine], with 238 °C. Then `CSC` [Dimethyl sulfide], with -98 °C; and `ClC(Cl)(Cl)c1ccccc1` [(Trichloromethyl)benzene], with -5 °C; and `Nc1ccc(CO)cc1` [p-amino_benzyl_alcohol], with 75 °C. Regarding `Cc1ccc2sc(C)nc2c1` [2,5-dimethylbenzothiazole], the melting point was determined as 40 °C. `O=C(O)CC(S)C(=O)O` (stereo not drawn) [mercaptosuccinic acid]: the melting point is 152 °C. Consider `NC(=O)c1ccc(-c2ccccc2)cc1` [biphenyl-4-carboxamide], for which the melting point is 228 °C. Regarding `c1ccc2c(c1)Cc1ccccc1-2` [9H-Fluorene], the melting point was 116 °C. `Oc1ccccc1-c1ccccc1` [Biphenyl-2-ol] displayed a melting point of 57 °C. In turn, `O=c1ccc2ccccc2[nH]1` [2-hydroxyquinoline] came in with a melting point of 198 °C. `O=C(OCc1ccccc1)c1ccccc1` [benzyl_benzoate] returned a melting point of 19 °C. Compound `C=C(C)C(=O)OC` [methyl_methacrylate] came in with a melting point of -48 °C. In the case of `O=C=Nc1ccccc1` [phenyl isocyanate], the melting point was -33 °C. As for `CC[C@H]1OC(=O)[C@H](C)[C@@H](O[C@H]2C[C@@](C)(OC)[C@@H](O)[C@H](C)O2)[C@H](C)[C@@H](O[C@@H]2O[C@H](C)C[C@H](N(C)C)[C@H]2O)[C@](C)(O)C[C@@H](C)CN(C)[C@H](C)[C@@H](O)[C@]1(C)O`, the melting point worked out at 114 °C. Compound `Cc1ccc(C(=O)c2ccccc2)cc1` [4-Methylbenzophenone] showed a melting point of 50 °C. The value for `COC(=O)CC(C)CCC1C(C)(O)CCC2C(C)(C)CCCC21C` (stereo not drawn) was 70 °C; that for `Cc1cccc(N)c1N` [2,3-diaminotoluene] was 58 °C. In turn, `c1cc2ccc3cccc4ccc(c1)c2c34` [Pyrene] registered a melting point of 150 °C. Turning to `OCc1ccc(I)cc1` [4-iodobenzyl alcohol], the melting point came out at 73 °C.

`COc1cc(C=O)cc(Br)c1O` [5-bromovanillin] displayed a melting point of 164 °C. The compound `CCOC(=O)/C=C/c1ccccc1` [Ethyl (2E)-3-phenylacrylate] displayed a melting point of 7 °C. The compound `NC(=O)c1ccc(Br)cc1` [4-bromobenzamide] registered a melting point of 192 °C.

As usually defined, the melting point is the temperature, or range, at which the solid turns liquid.
